# Several values for one entry are separate records, joined by “and”; a condition that tells them apart may be missing. Equal values may be shown once.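 All cell lines were grown in 96-well plates and treated with compound for 48 hours. The concentration for 50% growth inhibition is given as GI50. TGI marks complete inhibition of growth.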 Numbered stars: 1 amine (or outer) side, 2 acyl side, 3 side chain; on linkers, the order of the positions; unused ones are H or OH. Bridge positions count the residues as written; N and C are the ends. Square brackets hold non-standard residues; d marks the D form. Peptide text beside a SMILES is read from it. I, II: the chains in the order shown. Actinocin(1to9) = Cc1c2oc3c(C)ccc(C(=O)[*:2])c3nc-2c(C(=O)[*:1])c(N)c1=O; NMeY = CN[CH](Cc1ccc(O)cc1)C(=O)O; Sar = CNCC(=O)O
# Columns and labels:
# Assay in all cases: DTP human tumour cell line panel, 48 h
# OVCAR-8 ovarian = system: OVCAR-8 ovarian
# SNB-75 CNS = system: SNB-75 CNS
# MALME-3M melanoma = system: MALME-3M melanoma
# SF-295 CNS = system: SF-295 CNS
# SF-268 CNS = system: SF-268 CNS
# LOX IMVI melanoma = system: LOX IMVI melanoma
# COLO 205 colon = system: COLO 205 colon
# CAKI-1 renal = system: CAKI-1 renal
# OVCAR-3 ovarian = system: OVCAR-3 ovarian
# MDA-MB-435 = system: MDA-MB-435
Structure (SMILES),TGI (OVCAR-8 ovarian) [µM],TGI (SNB-75 CNS) [µM],TGI (MALME-3M melanoma) [µM],TGI (SF-295 CNS) [µM],TGI (SF-268 CNS) [µM],TGI (LOX IMVI melanoma) [µM],TGI (COLO 205 colon) [µM],TGI (CAKI-1 renal) [µM],TGI (OVCAR-3 ovarian) [µM],GI50 (OVCAR-8 ovarian) [µM],GI50 (SNB-75 CNS) [µM],GI50 (MALME-3M melanoma) [µM],GI50 (SF-295 CNS) [µM],GI50 (SF-268 CNS),GI50 (COLO 205 colon) [µM],GI50 (CAKI-1 renal),GI50 (OVCAR-3 ovarian) [µM],GI50 (LOX IMVI melanoma),GI50 (MDA-MB-435) [µM],TGI (MDA-MB-435) [µM]
CC1c2[nH]c3ccccc3c2CCN1O (configuration not stated),> 100,> 100,> 100,> 100,> 100,> 100,> 100,> 100,> 100,,,,,,,,,,,
COC(=O)N/N=C(\C)CC(=O)Nc1ccc(Cl)cc1,> 100,> 100,> 100,> 100,> 100,> 100,> 100,,> 100,,,,,,,,,,,
COc1ccc([C@@H]2OC(=O)C3C2C(=O)O[C@H]3c2ccc(OC)c(OC)c2)cc1OC (some centres not stated),> 100,> 100,> 100,> 100,> 100,> 100,> 100,,> 100,,,,,,,,,,,
CCC[CH2][Sn]1([CH2]CCC)[S]CC[N]1S(=O)(=O)c1ccc(C)cc1,4.16,2.38,2.33,3.42,2.54,,3.09,1.96,2.93,1.63,1.13,1.09,1.97,1.19 µM,1.63,0.675 µM,1.59,,,
CC[PH+](CC)CC.[Cl][Au],5.21,6.99,2.56,8.88,3.35,2.91,5.79,2.64,3.42,2.19,2.3,1.27,4.32,1.51 µM,1.85,1.18 µM,1.89,1.4 µM,,
C=C1C(OC(C)=O)CC(OC(C)=O)C2(C)C(OC(C)=O)C(OC(C)=O)C3=C(C)C(OC(=O)/C=C/c4ccccc4)CC(C(OC(C)=O)C12)C3(C)C (configuration not stated),> 100,43.4,> 100,> 100,> 100,> 100,> 100,> 100,,,,,,,,,,,,
COCCNc1cncc(C(N)=O)c1,> 100,> 100,,> 100,> 100,,> 100,> 100,> 100,,,,,,,,,,,
C=C1C[C@@H]2C[C@@H](C)CC(O)[C@]2(CCCN)C1O (some centres not stated),> 100,> 100,> 100,> 100,> 100,> 100,> 100,> 100,> 100,,,,,,,,,,,
CCOC(=O)C1=C(C)NC(c2ccco2)=C(C#N)C1c1cccc([N+](=O)[O-])c1 (configuration not stated),13.9,,23.6,,41.4,11.9,0.039,58.4,0.0373,0.0149,,,,0.0783 µM,0.0149,0.0223 µM,0.0147,0.0587 µM,,
CO[C@@]1(c2ccccc2)O[C@H]2OCCC2[C@H]1c1ccc(Cl)cc1 (some centres not stated),> 100,> 100,84.8,59.7,> 100,77.4,42.2,> 100,49.7,,,,,,,,,,,
COc1ccc2c(c1)CN1CCc3c(cc(OC)c(OC)c3OC)C1C2 (configuration not stated),> 100,> 100,> 100,> 100,> 100,,> 100,> 100,> 100,,,,,,,,,,,
CC[C@H](C)[C@H](NC(=O)c1cccn1C)C(=O)N(C)[C@H](C[C@@H](OC(C)=O)c1nc(C(=O)N[C@@H](Cc2ccccc2)C[C@H](C)C(=O)OC)cs1)C(C)C,> 33.3,> 33.3,> 33.3,,> 33.3,> 33.3,0.576,,0.272,0.354,0.0929,11.1,0.0744,0.351 µM,0.15,,0.0809,0.382 µM,0.0348,0.168
COc1cc(/C=N/N=C(\N)NO)c([N+](=O)[O-])cc1OC,> 100,78.9,> 100,> 100,99.2,83.5,> 100,76.2,> 100,,,,,,,,,,,
CC1=CCCC2C(C=O)(C1)CC(C)C2(CO)CC/C(=C/CO)CO (configuration not stated),> 100,> 100,> 100,> 100,,> 100,> 100,> 100,> 100,,,,,,,,,,,
COc1c(N2CCN(CN3C(=O)C(=Nc4ccc(S(=O)(=O)Nc5ncccn5)cc4)c4cc(Cl)ccc43)C(C)C2)c(F)cc2c(=O)c(C(=O)O)cn(C3CC3)c12 (configuration not stated),> 50,> 50,,> 50,> 50,> 50,> 50,42.2,> 50,13.9,19.1,,24.5,12.1 µM,18.4,14 µM,14.3,12.8 µM,10.3,21.1
CC(=O)[O-].N.N.N.N.[Co+3].[O-][Cl+3]([O-])([O-])[O-].[OH3+],> 100,> 100,> 100,> 100,> 100,> 100,> 100,,> 100,> 100,55.1,> 100,> 100,> 100 µM,> 100,,> 100,> 100 µM,,
"COc1ccc(CC2C(=O)OC(C)C(NC(=O)c3c4nc5c(C(=O)NC6C(=O)NC(C(C)C)C(=O)N7CCCC7C(=O)N(C)CC(=O)N(C)C(Cc7ccc(OC)cc7)C(=O)OC6C)ccc(C)c5oc-4c(C)c(=O)c3N)C(=O)NC(C(C)C)C(=O)N3CCCC3C(=O)N(C)CC(=O)N2C)cc1 (configuration not stated) (I: TVP[Sar][NMeY](Me) / II: TVP[Sar][NMeY](Me); ester I:1-I:C, II:1-II:C; linker I:N-II:N via Actinocin(1to9); configuration not given here)",,0.158,,0.28,,,0.113,0.734,,,,,,< 0.01 µM and 0.00484 µM,0.00498,< 0.01 µM and 0.0363 µM,,< 0.01 µM and 0.00423 µM,,
CN(C)CCCNc1nc2ccccc2c2[nH]c3ccccc3c12,6.65,3.78,,3.11,4.1,1.64,10.1,3.01,2.23,0.917,1.16,,0.972,1.39 µM,0.795,1.09 µM,0.66,0.75 µM,1.28,3.89

# From PubChem BioAssay (NCI)
